# Assay results from US20120094897A1, “NOVEL INHIBITORS OF HEPATITIS C VIRUS REPLICATION” (InterMune, Inc., priority 2010, published 2012).
# pEC50, pIC50: −log10 of the molar value.
# What was measured:
# [1] = target: T1, HCV NS3 protease (full-length NS3/NS4A-2 complex) (Hepatitis C virus genotype 1a, UniProt P27958); assay: NS3 Inhibition Assay (NS3-NS4 protease assay, RETS1 substrate); type: biochemical; details: NS3/NS4A-2, RETS1 substrate, 10 minutes pre-incubation
# T1 construct: Recombinant E. coli or Baculovirus full-length NS3 was diluted to 3.33 μM with assay buffer; host or cells: E. coli or baculovirus (insect cells)
# T1 sequence (P27958 1027-1657, one chain of several): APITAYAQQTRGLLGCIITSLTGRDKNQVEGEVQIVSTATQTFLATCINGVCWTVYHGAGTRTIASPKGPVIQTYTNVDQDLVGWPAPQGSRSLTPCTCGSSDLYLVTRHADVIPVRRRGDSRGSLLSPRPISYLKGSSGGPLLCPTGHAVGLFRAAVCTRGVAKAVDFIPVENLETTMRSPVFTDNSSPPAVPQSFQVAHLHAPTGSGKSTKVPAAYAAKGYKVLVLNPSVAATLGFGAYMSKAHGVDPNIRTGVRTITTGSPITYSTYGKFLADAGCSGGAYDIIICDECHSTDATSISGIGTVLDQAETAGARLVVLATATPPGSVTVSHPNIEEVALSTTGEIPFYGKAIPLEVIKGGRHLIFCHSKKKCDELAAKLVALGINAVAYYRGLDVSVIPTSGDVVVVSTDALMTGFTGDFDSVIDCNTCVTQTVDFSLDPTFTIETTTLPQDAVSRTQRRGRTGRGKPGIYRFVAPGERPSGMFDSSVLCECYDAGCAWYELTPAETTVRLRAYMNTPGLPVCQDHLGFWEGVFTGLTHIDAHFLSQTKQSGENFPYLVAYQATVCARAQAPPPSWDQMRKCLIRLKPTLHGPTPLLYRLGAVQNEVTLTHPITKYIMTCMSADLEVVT
# Procedure: NS3 Complex Formation with NS4A-2.
# Recombinant E. coli or Baculovirus full-length NS3 was diluted to 3.33 μM with assay buffer and the material was transferred to an eppendorf tube and placed in a water bath in a 4° C. refrigerator. The appropriate amount of NS4A-2 diluted to 8.3 mM in assay buffer was added to an equal the volume of NS3 above (conversion factor—3.8 mg/272 μL assay buffer). The material was transferred to an eppendorf tube and placed in water bath in a 4° C. refrigerator.
# After equilibration to 4° C., equal volumes of NS3 and NS4A-2 solutions were combined in an eppendorf tube, mixed gently with a manual pipettor, and incubated for 15 minutes in the 4° C. water bath. Final concentrations in the mixture are 1.67 μM NS3, 4.15 mM NS4A-2 (2485-fold molar excess NS4A-2).
# After 15 minutes at 4° C., the NS3/NS4A-2 eppendorf tube was removed and placed in a room temperature water bath for 10 minutes. NS3/NS4A-2 was aliquoted at appropriate volumes and stored at −80° C. (E. coli NS3 run at 2 nM in assay, aliquot at 25 μL. BV NS3 run at 3 nM in assay, aliquot at 30 μL).
# Step a. Sample compounds were dissolved to 10 mM in DMSO then diluted to 2.5 mM (1:4) in DMSO. Typically, compounds were added to an assay plate at 2.5 mM concentration, yielding upon dilution a starting concentration of 50 μM in the assay inhibition curve. Compounds were serial diluted in assay buffer to provide test solutions at lower concentrations.
# Step 1. The E. coli. NS3/NS4A-2 was diluted to 4 nM NS3 (1:417.5 of 1.67 μM stock−18 μL 1.67 μM stock+7497 μL assay buffer). The BV NS3/NS4A-2 was diluted to 6 nM NS3 (1:278.3 of 1.67 μM stock−24 μL 1.67 μM stock+6655 μL assay buffer).
# Step. 2. Using the manual multichannel pipettor, and being careful not to introduce bubbles into the plate, 50 μL assay buffer was added to wells A01-H01 of a black Costar 96-well polypropylene storage plate.
# Step 3. Using the manual multichannel pipettor, and being careful not to introduce bubbles into the plate, 50 μL of diluted NS3/NS4A-2 from step 1 was added to wells A02-H12 of the plate in step 2.
# Step 4. Using the manual multichannel pipettor, and being careful not to introduce bubbles into the plate, 25 μL of the wells in drug dilution plate in step a was transferred to corresponding wells in assay plate in step 3. The tips on the multichannel pipettor were changed for each row of compounds transferred.
# Step 5. Using the manual multichannel pipettor, and being careful not to introduce bubbles into the plate, the contents of the wells from the assay plate in step 4 were mixed by aspirating and dispensing 35 μL of the 75 μL in each well five times. The tips on multichannel pipettor were changed for each row of wells mixed.
# Step 6. The plate was covered with a polystyrene plate lid, and the plate from step 5 containing NS3 protease and sample compounds was pre-incubated 10 minutes at room temperature.
# While the plate from step 6 is pre-incubating, the RETS1 substrate was diluted in a 15 mL polypropylene centrifuge tube. The RETS1 substrate was diluted to 8 μM (1:80.75 of 646 μM stock−65 μL 646 μM stock+5184 μL assay buffer).
# After the plate in step 6 finished pre-incubating, and using the manual multichannel, 25 μL of substrate was added to all wells on the plate. The contents of the wells of the plate were quickly mixed, as in step 5, mixing 65 μL of the 100 μL in the wells.
# The plate was read in kinetic mode on the Molecular Devices SpectraMax Gemini XS plate reader. Reader settings: Read time: 30 minutes, Interval: 36 seconds, Reads: 51, Excitation λ: 335 nm, Emission λ: 495 nm, cutoff: 475 nm, Automix: off, Calibrate: once, PMT: high, Reads/well: 6, Vmax pts: 21 or 28/51 depending on length of linearity of reaction
# IC50s are determined using a four parameter curve fit equation, and converted to Ki's using the following Km's: • Full-length E. coli NS3-2.03 μM • Full-length BV NS3-1.74 μM • where Ki=IC50/(1+[S]/Km))
# [2] = system: HCV sub-genomic replicon (I377/NS3-3′) in HuH-7 hepatoma cells (GS4.3); assay: Quantitation by ELISA of NPTII in the HCV sub-genomic replicon, GS4.3; type: cell-based; details: Hepatitis C virus, GS4.3 replicon cells, 72 h incubation
# Procedure: The HCV sub-genomic replicon (I377/NS3-3′, accession No. AJ242652), stably maintained in HuH-7 hepatoma cells, was created by Lohmann et al. Science 285: 110-113 (1999). The replicon-containing cell culture, designated GS4.3, was obtained from Dr. Christoph Seeger of the Institute for Cancer Research, Fox Chase Cancer Center, Philadelphia, Pa.
# GS4.3 cells were maintained at 37° C., 5% CO2, in DMEM (Gibco 11965-092) supplemented with L-glutamine 200 mM (100×) (Gibco25030-081), non-essential amino acids (NEAA)(Biowhittaker 13-114E), heat-inactivated (HI) Fetal Bovine Serum(FBS)(Hyclone SH3007.03) and […] geneticin (G418)(Gibco 10131-035). Cells were sub-divided 1:3 or 4 every 2-3 days.
# 24 h prior to the assay, GS4.3 cells were collected, counted, and plated in 96-well plates (Costar 3585) at 7500 cells/well in 100 μL standard maintenance medium (above) and incubated in the conditions above. To initiate the assay, culture medium was removed, cells were washed once with PBS (Gibco 10010-023) and 90 μl Assay Medium (DMEM, L-glutamine, NEAA, 10% HI FBS, no G418) was added. Inhibitors were made as a 10× stock in Assay Medium, (3-fold dilutions from 10 μM to […] final concentration, final DMSO concentration 1%), 10 μL were added to duplicate wells, plates were rocked to mix, and incubated as above for 72 h.
# An NPTII Elisa kit was obtained from AGDIA, Inc. (Compound direct ELISA test system for Neomycin Phosphotransferase II, PSP 73000/4800). Manufacturer's instructions were followed, with some modifications. 10×PEB-1 lysis buffer was made up to include 500 μM PMSF (Sigma P7626, 50 mM stock in isopropanol). After 72 h incubation, cells were washed once with PBS and 150 μL PEB-1 with PMSF was added per well. Plates were agitated vigorously for 15 minutes, room temperature, and then frozen at −70° C. Plates were thawed, lysates were mixed thoroughly, and 100 μL were applied to an NPTII Elisa plate. A standard curve was made. Lysate from DMSO-treated control cells was pooled, serially diluted with PEB-1 with PMSF, and applied to duplicate wells of the ELISA plate, in a range of initial lysate amount of 150 μL. In addition, 100 μL buffer alone was applied in duplicate as a blank. Plates were sealed and gently agitated at room temperature for 2 h. Following capture incubation, the plates were washed 5×300 μL with PBS-T (0.5% Tween-20, PBS-T was supplied in the ELISA kit). For detection, a 1× dilution of enzyme conjugate diluent MRS-2 (5×) was made in PBS-T, into which 1:100 dilutions of enzyme conjugates A and B were added, as per instructions. Plates were resealed, and incubated with agitation, covered, room temperature, for 2 h. The washing was then repeated and 100 μL of room temperature TMB substrate was added. After approximately 30 minutes incubation (room temperature, agitation, covered), the reaction was stopped with 50 μL 3M sulfuric acid. Plates were read at 450 nm on a Molecular Devices Versamax plate reader.
# Inhibitor effect was expressed as a percentage of DMSO-treated control signal, and inhibition curves were calculated using a 4-parameter equation: y=A+4B−A)/(1+((C/x)̂D))), where C is half-maximal activity or EC50.
SMILES,pIC50 [1],pEC50 [2]
CC[C@@H]1C[C@@]12NC(=O)[C@@H]1C[C@H](CN1C(=O)[C@@H](NC(=O)OC(C)(C)C)C(C)(C)C)Oc1nc3c(cccc3n1C(C)C)CCCC/C=C/CCCC1(CC1)S(=O)(=O)NC2=O [Compound 111],7.00 to 8.00,≤ 7.00
CC[C@@H]1C[C@@]12NC(=O)[C@@H]1C[C@H](CN1C(=O)[C@@H](NC(=O)OC(C)(C)C)C(C)(C)C)Oc1nc3c(cccc3n1C(C)C)CCCCCCCCCC1(CC1)S(=O)(=O)NC2=O [Compound 112],≥ 8.00,≤ 7.00
CC[C@@H]1C[C@@]12NC(=O)[C@@H]1C[C@H](CN1C(=O)[C@@H](N)C(C)(C)C)Oc1nc3c(cccc3n1C(C)C)CCCCCCCCCC1(CC1)S(=O)(=O)NC2=O [Compound 113],7.00 to 8.00,≤ 7.00
